Data set [1] concerns Rabbit platelet aggregation induced by arachidonic acid. As to the kind of experiment: Effects on rabbit platelet aggregation in vitro (PRP), arachidonic acid-induced. As to conditions: Oryctolagus cuniculus, 0.05 h, arachidonic acid 10^-4 M, 3 min. preincubation, read-out: IC100 (concentration which gave maximum (100%) inhibition against platelet aggregation). Type of data set: cell-based. As for the experimental part:
(§1) The antiaggregant activity in vitro of the present compounds was studied in platelet rich plasma from rabbit and man.
(§2) Blood was taken from the femoral artery of rabbit with a syringe containing sodium citrate (3.8%, 1 vol. in 9 vol. of blood). The citrated blood was centrifuged at 800 rpm. The supernatants were stored at 10° C. until use as platelet rich plasma (PRP) in the subsequent experiment. Platelet aggregation was determined with aggregometer (D-P 247 E, SIENCO Ltd.). Stock solution of test compounds was made by suspending at a concentration of 10 mg/ml in 1% gum arabic solution. Further, dilution was made with 0.9% saline. PRP was preincubated for 3 min. with the test compounds, and then arachidonic acid as aggregant was added at final concentration of 10^-4 M.
(§3) IC100 -values are the concentrations which gave maximum (100%) inhibition against platelet aggregation caused by arachidonic acid.

A short description of data set [2]: Gastro-intestinal lesions in rats (ulcerogenic activity). More on the design: species or system Male Wistar rats. The settings on record: rat, in vivo, po. As for the experimental part: Male Wistar rats weighing 250 to 300 g were used in this experiment. Ulcer formation under the satiety condition was studied as follows: Rats not fasted prior to experiment were administered orally with test compounds. The animals were allowed free access to diet and water for 24 hours after the drug administration until sacrificed by exsanguination. The stomach and the intestine were removed and examined for lesions.
In the other study, rats had been deprived of food and water for 24 hours before drug administration. The animals were administered orally with the compound of Example 2 and aspirin and then they had free access to water but not to diet. Twenty-four hours later, the animals were killed by the exsanguination. The stomach and the intestine were removed and observed carefully to know whether or not lesions were present.
Units for the UD50values: mg/kg, p.o. UD50 means the dose that
cause the lesions in 50% of animals.

For data set [3], the system named is human platelet aggregation, collagen-induced. As to the kind of experiment: Effects on human platelet aggregation in vitro (PRP), collagen-induced. The format is cell-based. The settings on record: 0.05 h, collagen 6-8 μg/ml, read-out: concentration that completely inhibited platelet aggregation. As for the experimental part:
as §1, §2, §3
(§4) Blood samples were taken from median cubital vein of 5 healthy volunteers (male, 30 to 42 age) with plastic syringe. The citrated blood (sodium citrate 1 vol. in 9 vol. of blood) was centrifuged at 1000 rpm. The supernatant (PRP) was stored at 10° C. and used within 5 hours. Arachidonic acid (4-8×10^-4 M) and collagen (6-8 μg/ml, SIGMA, Type III) were used as aggregants. Other procedures were the same as in Experiment 1.

Data set [4] can be described thus: Acute Toxicity (LD50), rats. As to conditions: rat, in vivo.
Data set [5] concerns arachidonic acid-induced aggregation of platelets from rabbit. As to the kind of experiment: Ex vivo studies on platelet aggregation (PRP from rabbit administered orally), arachidonic acid-induced. Type of data set: in vivo. As to conditions: oral, blood taken one hour after administration, FIG. 1. As for the experimental part:
To know the absorbability and potency of the compound of this invention, another platelet aggregation tests were done using the PRP from rabbit which had been administered orally with the drugs.
Rabbits were administered orally with the compound of Example 2 or aspirin. One hour after the drug administration, blood was taken from the femoral artery. The methods for preparing PRP and determining platelet aggregation were the same as Experiment 1.

Data set [6] in a line: Acute Toxicity (LD50), mice. The settings on record: mouse, in vivo.
Data set [7] has as its system human platelet aggregation, arachidonic acid-induced. As to the kind of experiment: Effects on human platelet aggregation in vitro (PRP), arachidonic acid-induced. Type of data set: cell-based. As for the experimental part: as §1, §2, §3, §4
The nature of data set [8]: Effect on blood viscosity (whole blood and plasma viscosities, hematocrit). The format is in vivo, Male Wistar rats. As to conditions: rat, 10 mg/kg p.o. twice a day for 2 days. How it is done:
Male Wistar rats weighing 300-380 g were used in this experiment. Rats were administered orally 10 mg/kg twice a day of the compound of Example 2 for 2 days. One hour after the last treatment, rats were anaesthetized with pentobarbital 35 mg/kg ip, and then blood was taken from vena cava caudalis. EDTA was added at a final concentration of 2 mM.
Whole blood and plasma viscosities were measured with rotational viscometer (Contraves LS-30, shear rate 0-128.5 sec.^-1, 37° C.) and hematocrit was determined by microhematocrit centrifugation (13,000 g for 5 min.).

[9] abbreviates: iv, read-out: Acute Toxicity LD50, I.V.
Where [10] appears, read: po, read-out: Acute Toxicity LD50, P.O.

Molecules are shown by their SMILES. Read-outs that look alike come from different tables or passages of the source.

Consider `CC(=O)Oc1ccccc1C(=O)O` [Aspirin, reference compound], for which the IC100 is 4 µg/mL in data set [1] and 100 µg/mL in data set [3]. In addition, the TD50 at 24 h was 25 to 50 mg/kg in data set [2] (deprived of food and water for 24 hours before, examined 24 hours after, read-out: UD50 (dose that cause the lesions in 50% of animals), Fasting); 230 mg/kg in data set [2] (not fasted, 24 hours, read-out: UD50 (dose that cause the lesions in 50% of animals), Satiety).
For the compound `Cc1nn2ccccc2c1C(=O)c1cccnc1` [Example 1, 2-methyl-3-nicotinoylpyrazolo[1,5-a]pyridine], in data set [1], the IC100 was 6 µg/mL.
In the case of `Cc1nn2ccccc2c1C(=O)C1=CNCCC1` [Example 2, 2-methyl-3-(1,4,5,6-tetrahydronicotinoyl)pyrazolo[1,5-a]pyridine], the LD50 (as a rule, the dose at which mortality reaches 50%) in data set [4] (setting [9]) was greater than 100 mg/kg. Further, in data set [4] (setting [10]), the LD50 is greater than 1000 mg/kg. Also, the “inhibitory activity on arachidonic acid-induced platelet aggregation relative to aspirin” value in data set [5] is reported as “several times as high as aspirin”. Further, in data set [1], the IC100 was determined as 0.03 µg/mL. The compound also yielded a TD50 at 24 h in data set [2] (UD50 (dose that cause the lesions in 50% of animals), Fasting) of 300 to 500 mg/kg. Further, the TD50 at 24 h in data set [2] (UD50 (dose that cause the lesions in 50% of animals), Satiety) is greater than 1000 mg/kg. Also, the LD50 in data set [6] (setting [9]) was 125 to 150 mg/kg. Also, in data set [6] (setting [10]), the LD50 was greater than 1000 mg/kg. Besides, the “difference in the IC100-values between individuals” value in data set [7] (arachidonic acid and collagen, considered to be due to individual difference) is on record as “About 300 folds”. For the same compound, in data set [7] (comparison of the two aggregants), the “inhibitory activity against both arachidonic acid- and collagen-induced platelet aggregation” value was “almost the same inhibitory activity”. Moreover, in data set [8], the effect on hematocrit result is “no effects”; the “effect on plasma viscosity” value is reported as “no effects”; the “reduction of whole blood viscosity, shear rate 0.1285 sec.^-1” value is 50.1%; the “reduction of whole blood viscosity, shear rate 0.514 sec.^-1” value is reported as 36.1%. In data set [8], the “reduction of whole blood viscosity, shear rate 6.425 sec.^-1” value is reported as 23.5%; the “reduction of whole blood viscosity, shear rate 25.7 sec.^-1” value was determined as 19.2%; the “reduction of whole blood viscosity, shear rate 128.5 sec.^-1” value is given as 12.0%. In addition, the “Plasma Viscosity” value in data set [8] (37° C.) stood at 1.14 ± 0.01 mPS. Moreover, in data set [8] (37° C., * p < 0.05 vs vehicle), the “Whole Blood Viscosity, shear rate 0.1285 sec.^-1” value was determined as 24.8 ± 2.71 mPS; the “Whole Blood Viscosity, shear rate 0.514 sec.^-1” value is given as 17.2 ± 1.31 mPS; the “Whole Blood Viscosity, shear rate 6.425 sec.^-1” value stood at 7.31 ± 0.36 mPS; the “Whole Blood Viscosity, shear rate 25.7 sec.^-1” value amounted to 5.18 ± 0.12 mPS. Besides, the “Whole Blood Viscosity, shear rate 128.5 sec.^-1” value in data set [8] (37° C., * p < 0.05 vs vehicle) worked out at 3.68 ± 0.08 mPS. In data set [8] (microhematocrit centrifugation), this compound returned a Hematocrit of 46.0 ± 0.71%.
For `Cc1nn2c(c1C(=O)C1=CNCCC1)CCCC2` [Example 3, 2-methyl-3-(1,4,5,6-tetrahydronicotinoyl)-4,5,6,7-tetrahydropyrazole[1,5-a]pyridine], the IC100 in data set [1] amounted to 0.2 µg/mL.
`Cc1nn2ccccc2c1C(=O)C1=CN(C(=O)Nc2ccc(Cl)cc2)CCC1` [Example 4, 2-methyl-3-[1-(p-chlorophenylcarbamoyl)-1,4,5,6-tetrahydronicotinoyl]-pyrazolo[1,5-a]pyridine]: in data set [1], the IC100 turned out to be 1 µg/mL.
Still for that read-out and setting: under `CCOC(=O)C(C)N1C=C(C(=O)c2c(C)nn3ccccc23)CCC1` (centres unmarked) [Example 10, 3-[1-(1-ethoxycarbonylethyl)-1,4,5,6-tetrahydronicotinoyl]-2-methylpyrazolo-[1,5-a]pyridine] stands 0.3 µg/mL.
